For eight compounds, IC50 results are on record in US20240190892A1, “PLASMA KALLIKREIN INHIBITORS” (Merck Sharp & Dohme LLC, priority 2021, published 2024).

Experiment [1] concerns the target Coagulation factor XIa (Homo sapiens (Human), UniProt P03951). Briefly: Factor XIa Assay. The class given is biochemical. Particulars: human factor XIa 0.04 nM, substrate GPR-AFC, 30 min pre-incubation at 25° C., pH 7.4; read-out: FXIa IC50. As for the experimental part:
(§1) The effectiveness of a compound of the present invention as an inhibitor of Coagulation factor XIa can be determined using a relevant purified serine protease, and an appropriate synthetic substrate. The rate of hydrolysis of the chromogenic or fluorogenic substrate by the relevant serine protease was measured both in the absence and presence of compounds of the present invention. Assays were conducted at rt or at 37° C. […] A decrease in the rate of fluorescence change in the presence of inhibitor is indicative of enzyme inhibition. Such methods are known to one skilled in the art. The results of this assay are expressed as the half-maximal inhibitory concentrations (IC50), or the inhibitory constant, Ki.
Compounds were pre-incubated for 30 min at 25° C. with human (0.04 nM) factor XIa in 50 mM HEPES buffer with 150 mM sodium chloride, 5 mM calcium chloride, 0.1% PEG 8000, pH 7.4. factor XIa enzymatic activity was determined by addition of the substrate glycine-proline-arginine-7-amido-4-trifluoromethylcoumarin (GPR-AFC) and measurement of the fluorescence at 400/505 nm after a 60 min incubation at 25° C. The % inhibition for each data point was calculated from the data and analyzed using the log (inhibitor) vs. response four parameters equation to determine the half-maximal inhibitory concentrations (IC50). The IC50 were converted to equilibrium inhibitory constants (Ki) using the Cheng-Prusoff equation.

Experiment [2] has as its target Human plasma kallikrein (Homo sapiens (Human), UniProt P03952). In words: Plasma Kallikrein Assay. The class given is biochemical. Particulars: purified Human plasma kallikrein 0.5 nM, substrate Acetyl-K-P-R-AFC, pH 7.4; read-out: PKal IC50. On the procedure:
as §1, with “plasma kallikrein” for “Coagulation factor XIa”
Plasma kallikrein determinations were made in 50 mM HEPES buffer at pH 7.4 containing 150 mM NaCl, 5 mM CaCl2, and 0.1% PEG 8000 (polyethylene glycol; Fisher Scientific). Determinations were made using purified Human plasma kallikrein at a final concentration of 0.5 nM (Enzyme Research Laboratories) and the synthetic substrate, Acetyl-K-P-R-AFC (Sigma #C6608) at a concentration of […].
Activity assays were performed by diluting a stock solution of substrate at least tenfold to a final concentration ≤0.2 Km into a solution containing enzyme or enzyme equilibrated with inhibitor. Times required to achieve equilibration between enzyme and inhibitor were determined in control experiments. The reactions were performed under linear progress curve conditions and fluorescence increase measured at 405 Ex/510 Em nm. Values were converted to percent inhibition of the control reaction (after subtracting 100% Inhibition value). IC50 was determined by inflection point from a four parameter logistic curve fit. Ki was calculated using the Cheng Prusoff equation, Ki=IC50/(1+[S]/Km)).

Sequence of Human plasma kallikrein (P03952 391-638 limits assumed): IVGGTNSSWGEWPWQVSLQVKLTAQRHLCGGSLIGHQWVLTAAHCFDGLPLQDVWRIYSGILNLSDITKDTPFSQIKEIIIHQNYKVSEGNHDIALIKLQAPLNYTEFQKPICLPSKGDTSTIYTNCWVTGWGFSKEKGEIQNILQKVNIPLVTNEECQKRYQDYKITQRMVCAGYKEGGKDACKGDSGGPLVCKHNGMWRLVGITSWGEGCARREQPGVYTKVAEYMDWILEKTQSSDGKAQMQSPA
Sequence of Human plasma kallikrein (P03952 20-390 partner limits assumed): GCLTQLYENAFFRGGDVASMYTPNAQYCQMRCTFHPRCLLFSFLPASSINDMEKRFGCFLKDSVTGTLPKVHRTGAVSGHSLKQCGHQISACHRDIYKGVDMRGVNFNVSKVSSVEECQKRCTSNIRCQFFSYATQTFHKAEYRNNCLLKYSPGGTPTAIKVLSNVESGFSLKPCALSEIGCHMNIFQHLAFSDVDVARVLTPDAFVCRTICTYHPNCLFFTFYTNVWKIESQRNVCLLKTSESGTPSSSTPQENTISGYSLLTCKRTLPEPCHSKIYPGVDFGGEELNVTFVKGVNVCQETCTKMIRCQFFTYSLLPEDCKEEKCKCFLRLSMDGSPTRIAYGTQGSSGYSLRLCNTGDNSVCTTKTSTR
Sequence of Coagulation factor XIa (P03951 388-625 limits assumed): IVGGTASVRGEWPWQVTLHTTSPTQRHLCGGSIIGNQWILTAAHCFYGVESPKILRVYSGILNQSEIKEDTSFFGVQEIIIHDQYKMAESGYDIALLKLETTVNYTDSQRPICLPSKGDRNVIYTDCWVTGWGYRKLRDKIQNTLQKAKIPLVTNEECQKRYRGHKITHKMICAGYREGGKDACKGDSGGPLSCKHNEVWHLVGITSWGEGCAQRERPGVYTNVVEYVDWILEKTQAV
Sequence of Coagulation factor XIa (P03951 19-387 partner limits assumed): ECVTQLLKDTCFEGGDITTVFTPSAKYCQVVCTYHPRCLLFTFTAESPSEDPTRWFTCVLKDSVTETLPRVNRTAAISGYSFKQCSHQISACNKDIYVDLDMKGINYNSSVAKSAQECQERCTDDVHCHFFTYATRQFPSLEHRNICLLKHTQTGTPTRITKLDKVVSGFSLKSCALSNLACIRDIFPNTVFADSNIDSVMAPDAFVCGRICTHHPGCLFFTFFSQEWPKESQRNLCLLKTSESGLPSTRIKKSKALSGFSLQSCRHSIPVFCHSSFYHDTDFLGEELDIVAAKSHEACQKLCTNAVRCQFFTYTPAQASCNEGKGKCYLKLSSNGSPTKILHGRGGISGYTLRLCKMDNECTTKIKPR

With `O=C1Nc2ccc(Cl)c(F)c2[C@]2(CCN(c3cc(C(=O)NCc4ccc(N5CCC(C(F)(F)F)C5)nc4)cnn3)C2)O1` (stereo in doubt) [Example 9, (S)-6-(6-Chloro-5-fluoro-2-oxo-1,2-dihydrospiro[benzo[d][1,3]oxazine-4,3′-pyrrolidin]-1′-yl)-N-((6-(3-(trifluoromethyl)pyrrolidin-1-yl)pyridin-3-yl)methyl)pyridazine-4-carboxamide], the IC50 stood at 10 µM in experiment [1] and 0.0075 µM in experiment [2].
Take `CN1CCCC1c1ccc(CNC(=O)c2cnnc(N3CC[C@]4(C3)OC(=O)Nc3ccc(Cl)c(F)c34)c2)cc1` (stereo in doubt) [Example 10, (S)-6-(6-Chloro-5-fluoro-2-oxo-1,2-dihydrospiro[benzo[d][1,3]oxazine-4,3′-pyrrolidin]-1′-yl)-N-(4-(1-methylpyrrolidin-2-yl)benzyl)pyridazine-4-carboxamide]: the figures for the 50% inhibitory concentration (IC50) in experiment [1] and in experiment [2] were 10 µM and 0.0025 µM, respectively.
Regarding `CN1CCCC1c1ccc(CNC(=O)c2cnnc(N3CC[C@]4(C3)OC(=O)Nc3ccc(Cl)c(F)c34)c2)cn1` (stereo in doubt) [Example 11, (S)-6-(6-Chloro-5-fluoro-2-oxo-1,2-dihydrospiro[benzo[d][1,3]oxazine-4,3′-pyrrolidin]-1′-yl)-N-((6-(1-methylpyrrolidin-2-yl)pyridin-3-yl)methyl)pyridazine-4-carboxamide], the 50% inhibitory concentration (IC50) in experiment [1] came to 10 µM; in experiment [2], 0.0039 µM.
For the compound `CN1CC(F)(F)CC1c1ccc(CNC(=O)c2cnnc(N3CC[C@]4(C3)OC(=O)Nc3ccc(Cl)c(F)c34)c2)cn1` (stereo in doubt) [Example 13, (S)-6-(6-Chloro-5-fluoro-2-oxo-1,2-dihydrospiro[benzo[d][1,3]oxazine-4,3′-pyrrolidin]-1′-yl)-N-((6-(4,4-difluoro-1-methylpyrrolidin-2-yl)pyridin-3-yl)methyl)pyridazine-4-carboxamide], the IC50 in experiment [1] was found to be 10 µM; in experiment [2] it was 0.0816 µM.
For `C[C@H]1CCN(c2ccc(CNC(=O)c3cncc(N4CC[C@]5(C4)OC(=O)Nc4ccc(Cl)c(F)c45)n3)cn2)C1` [Example 1, (S)-6-(6-Chloro-5-fluoro-2-oxo-1,2-dihydrospiro[benzo[d][1,3]oxazine-4,3′-pyrrolidin]-1′-yl)-N-((6-((S)-3-methylpyrrolidin-1-yl)pyridin-3-yl)methyl)pyrazine-2-carboxamide], in that order: 10 µM and 0.0193 µM.
In the case of `O=C1Nc2ccc(Cl)c(F)c2[C@]2(CCN(c3cncc(C(=O)NCc4ccc(N5CCCC5)nc4)n3)C2)O1` [Example 2, (S)-6-(6-Chloro-5-fluoro-2-oxo-1,2-dihydrospiro[benzo[d][1,3]oxazine-4,3′-pyrrolidin]-1′-yl)-N-((6-(pyrrolidin-1-yl)pyridin-3-yl)methyl)pyrazine-2-carboxamide], the IC50 amounted to 10 µM in experiment [1] and 0.0068 µM in experiment [2].
For `C[C@H]1CCN(c2ccc(CNC(=O)c3cncc(N4CC[C@]5(C4)OC(=O)Nc4ccc(Cl)c(F)c45)c3)cn2)C1` [Example 3, (S)-5-(6-Chloro-5-fluoro-2-oxo-1,2-dihydrospiro[benzo[d][1,3]oxazine-4,3′-pyrrolidin]-1′-yl)-N-((6-((S)-3-methylpyrrolidin-1-yl)pyridin-3-yl)methyl)nicotinamide], in that order: 10 µM and 0.0095 µM.
Take `C[C@H]1CCN(c2ccc(CNC(=O)c3cnnc(N4CC[C@]5(C4)OC(=O)Nc4ccc(Cl)c(F)c45)c3)cn2)C1` [Example 4, (S)-6-(6-Chloro-5-fluoro-2-oxo-1,2-dihydrospiro[benzo[d][1,3]oxazine-4,3′-pyrrolidin]-1′-yl)-N-((6-((S)-3-methylpyrrolidin-1-yl)pyridin-3-yl)methyl)pyridazine-4-carboxamide]: the IC50 in experiment [1] was 7.44 µM; in experiment [2], 0.0012 µM.

One may read the IC50 as the concentration that gives 50% inhibition.
